Reference: article PMC4913735, “Non‐glycosidic compounds can stimulate both human and mouse iNKT cells” (European Journal of Immunology, 2016)

Assays:
NK cells = test: In vivo transactivation of NK cells (intracellular IFN‐γ, CD69) by flow cytometry; set-up: species or system mice; settings: 1 μg i.v.; splenocytes at 12, 24 or 33 h
Description: Supplementary file EJI-46-1224-s001.pdf: Figure S1. […] Mice were immunized i.v. with 1 μg of lipids and splenocytes stained with anti‐CD11c and anti‐CD40 mAb to determine the extent of maturation by the expression of CD40 on gated DCs (CD11c+ cells) using flow cytometry. (n=3/group) Median Fluorescent Intensity=MFI. Error bars are mean ± SEM. Figure S2. IFN‐γ in serum of mice injected intramuscularly (i.m.) with iNKT cell agonists. C57BL/6 mice (n=4) or syngeneic CD1d knockout Mice (n=2) were injected intramuscularly with α‐GalCer, ThrCer 6 or vehicle. 18 hours later blood samples were tested for IFN‐γ using ELISA. As controls, mice (n=2) were injected intravenously with α‐GalCer or ThrCer 6. Error bars are mean ±SEM. one of two experiment is shown *p=0.0114. Figure S3. Transactivation of NK cells using non‐glycosidic analogues. Mice were immunized i.v. with 1 μg of lipids and sacrificed at 12 h, 24 h or 33 h post injection (n=3/group). Splenocytes were assessed by flow cytometry for the transactivation of NK cells (DX5+NK1.1+CD3‐ cells) using (B) the surface activation marker, CD69, or (A) intracellular IFN‐γ staining. Error bars are mean ± SEM. *p < 0.05. Representative of two independent experiments Figure S4. […] Data relating to numbers of ovalbumin specific T cells was analysed using the following gating stratagy: From top left to right and then bottom left to right. […]

hCD1d C1R cells = test: Tetrameric human iNKT‐cell TCR staining of lipid‐loaded hCD1d C1R cells (flow cytometry); assay type: cell-based; settings: compared with α‐GalCer; overnight incubation
Description: Two analogs of ThrCer, ThrCer 6, and ThrCer 7 were synthesized. […] We first carried out measurements to assess the binding affinity of these ThrCer analogs to human iNKT‐cell TCR (Fig. 1B). Recombinant human CD1d (hCD1d) molecules were refolded in vitro with ThrCer 6 and ThrCer 7 separately and coupled to BIAcore chips, over which refolded human iNKT‐cell TCR was injected at different concentrations 34. […]
Figure 1 ThrCer 6 and ThrCer 7 are potent human iNKT‐cell agonists and display a prolonged interaction with the iNKT‐cell TCR when in complex with human CD1d molecules. […] (B) Equilibrium binding and kinetics measurements of a soluble human iNKT‐cell TCR were assessed for hCD1d molecules refolded with α‐GalCer, ThrCer, ThrCer 6, and ThrCer 7. K d values (μM) were calculated from equilibrium binding. […] After incubating overnight, the degree of iNKT‐cell recognition, assessed either (C) by using a tetrameric human iNKT‐cell TCR by flow cytometry or (D) by the addition of human iNKT cells to cultures and determining the amount of IFN‐γ released in supernatant by ELISA. (E) Human DC maturation was assessed following coculture with human iNKT cells and l μg lipids after 40 h, as determined by CD86 upregulation on DC by flow cytometry. […]

human DC = test: Human DC maturation (CD86 upregulation) in coculture with human iNKT cells and lipids; assay type: cell-based; settings: compared to ThrCer; comparable to α‐GalCer; 40 h
Description: Figure 1 ThrCer 6 and ThrCer 7 are potent human iNKT‐cell agonists and display a prolonged interaction with the iNKT‐cell TCR when in complex with human CD1d molecules. (A) The structures of α‐GalCer and non‐glycosidic analogs ThrCer, ThrCer 6, and ThrCer 7 are shown. (B) Equilibrium binding and kinetics measurements of a soluble human iNKT‐cell TCR were assessed for hCD1d molecules refolded with α‐GalCer, ThrCer, ThrCer 6, and ThrCer 7. K d values (μM) were calculated from equilibrium binding. (C and D) iNKT‐cell agonists were added to human CD1d C1R cells at various concentrations. After incubating overnight, the degree of iNKT‐cell recognition, assessed either (C) by using a tetrameric human iNKT‐cell TCR by flow cytometry or (D) by the addition of human iNKT cells to cultures and determining the amount of IFN‐γ released in supernatant by ELISA. (E) Human DC maturation was assessed following coculture with human iNKT cells and l μg lipids after 40 h, as determined by CD86 upregulation on DC by flow cytometry. Median fluorescent intensity = MFI. (D and E) Error bars are mean ± SEM (triplicate wells). […]
To this end, hCD1d‐expressing C1R cells were loaded overnight with serial dilutions of lipids (α‐GalCer, ThrCer, ThrCer 6, and ThrCer 7) and then incubated with human iNKT cells. iNKT‐cell activation was assessed by measuring IFN‐γ production in the supernatant by ELISA. […]

B16 melanoma cells = test: B16 melanoma lung metastasis model; assay type: in vivo, C57BL/6 mice; settings: 1 and 0.1 ng i.v.; versus ThrCer; comparable protection at 1000‐fold lower dose than ThrCer
Description: To this end, mice were injected i.v. with a range of doses of lipids (100, 1, 0.1 ng) and 3 days later, challenged with i.v. injected 5 × 10^5 B16 melanoma cells. Fourteen days later, the metastasis load in the lungs was quantified. […] With a reduction in lipid dose, the extent of tumor metastasis burden increased to varying degrees.
(A) Mice were immunized with 100, 1, or 0.1 ng of lipids i.v. 3 days before receiving an i.v. challenge with 5 × 10^5 B16 melanoma cells (n = 4/group). Two weeks later the lungs were removed and the number of metastatic nodules quantified as described in section “Materials and methods”. Data in the three panels are shown as mean ± SEM of tumor area as percentage of total lung area, and are representative of two independent experiments. (B) Representative lung lobe from each group is shown. Photographic images are representative of four lung lobes in each of two independent experiments.
C57BL/6 mice were challenged i.v. with syngeneic B16F10 melanoma, resuspended in PBS. A total of 5 × 10^5 cells in 200 μL were administered 3 days after administration of indicated doses of iNKT‐cell agonists (100, 1, or 0.1 ng). Two weeks after challenge, mice were killed, lungs removed, imaged and the percentage of lung tumor metastases quantified using Adobe Photoshop®.

| Structure (SMILES) | Transactivation of NK cells (intracellular IFN‐γ, CD69) (NK cells) | Staining of lipid‐loaded hCD1d C1R cells by tetrameric human iNKT‐cell TCR (hCD1d C1R cells) | Human DC maturation (CD86 upregulation) (human DC) | Protection against B16 lung metastases at reduced lipid dose (B16 melanoma cells) |
| --- | --- | --- | --- | --- |
| CCCCCCCCCCCCCCCCCCCCCCCCCC(=O)N[C@@H](CO[C@H]1CC[C@H](O)[C@H](O)[C@H]1O)[C@H](O)[C@H](O)CCCCCCCCCCCCCC [ThrCer 6] | comparable transactivation of NK cells | enhanced staining | improved ability | far greater protection |
| CCCCCCCCCCCCCCCCCCCCCCCCCC(=O)NC(COC1CCCC(O)C(O)C1O)C(O)C(O)CCCCCCCCCCCCCC (centres unmarked) [ThrCer 7] |  | enhanced staining | improved ability |  |
| CCCCCCCCCCCCCCCCCCCCCCCCCC(=O)N[C@@H](CO[C@H]1O[C@H](CO)[C@H](O)[C@H](O)[C@H]1O)[C@H](O)[C@H](O)CCCCCCCCCCCCCC [α‐GalCer, α‐galactosylceramide, reference compound] | comparable transactivation of NK cells |  |  | far greater protection |
